What was measured:
Format in all cases: in vivo
OVX female mice = experiment: Serum melatonin by ELISA in OVX female mice (Example 3); settings: FIG. 3, saline control about 11 pg/ml, caffeine 7.5 mg/kg, composition given with caffeine
Experimental: (§1) Both OVX female mice and male mice were divided into three groups: group treated with saline, group treated with 7.5 mg/kg caffeine, and group treated with a combination of 7.5 mg/kg caffeine and the magnesium glycinate, L-theanine, GABA, SAMe and propyl gallate composition. […] Levels of serum melatonin were measured by ELISA kits.

5-HT1A = experiment: Western blot of brain 5-HT1A in caffeine-treated mice (Example 1); settings: FIG. 1G, male BALB/c mice brain, reduced from 100%, caffeine 7.5 mg/kg i.p., combos given together with caffeine, after two hours
Experimental: (§2) Five male BALB/c mice per treatment arm (age: 8 weeks; weight: […]) were housed in a controlled environment with a 12:12-h light-dark cycle at 22° C. and were provided with mice chow and water ad libitum. The mice were fasted for 24 hours prior to the study, which was conducted between 1 pm and 5 pm and under the National Institutes of Health's Guidelines for the Care and Use of Laboratory Animals and approved by the Ethics Committee of the Medipol University. The mice were divided into eight groups and anesthetized with urethane (1.25 g/kg, i.p.; Sigma U2500) and carefully placed in a stereotaxic frame. Rectal temperatures were maintained between 36.5° C. and 37.0° C. using a feedback-controlled-heating system (507221F, Harvard Apparatus, ABD). Lidocaine (2.0%) was applied on the incision area to prevent any occurrence of pain. A midline incision was made on the skin along the sagittal suture of the skull. A part of the cranium overlying the left parietal cortex was removed using a dental drill. Ag—AgCl ball electrodes were placed on the left somatomotor cortex (1 mm anterior/1.5 mm lateral from bregma; 3 mm posterior/1.5 mm lateral from bregma) and the reference electrode was attached to the left foot for an ECoG recording. Group 1 were treated with saline. To induce sleep disturbance, 7.5 mg/kg caffeine was injected intraperitoneally at minute 15 of recordings to groups 2-8. […]

GABAB receptor 2 = experiment: Western blot of brain GABAB receptor 2 in caffeine-treated mice (Example 1); settings: FIG. 1C, male BALB/c mice brain, reduced from 100%, caffeine 7.5 mg/kg i.p., combos given together with caffeine, after two hours
Experimental: as §2

GluA1 = experiment: Western blot of brain GluA1 in caffeine-treated mice (Example 1); settings: FIG. 1D, male BALB/c mice brain, reduced from 100%, caffeine 7.5 mg/kg i.p., combos given together with caffeine, after two hours
Experimental: as §2

GluN1 = experiment: Western blot of brain GluN1 in caffeine-treated mice (Example 1); settings: FIG. 1E, male BALB/c mice brain, reduced from 100%, caffeine 7.5 mg/kg i.p., combos given together with caffeine, after two hours
Experimental: as §2

GluN2A = experiment: Western blot of brain GluN2A in caffeine-treated mice (Example 1); settings: FIG. 1F, male BALB/c mice brain, reduced from 100%, caffeine 7.5 mg/kg i.p., combos given together with caffeine, after two hours
Experimental: as §2

GABAB receptor 1 = experiment: Western blot of brain GABAB receptor 1 in caffeine-treated mice (Example 1); settings: FIG. 1B, male BALB/c mice brain, reduced from 100%, caffeine 7.5 mg/kg i.p., combos given together with caffeine, after two hours
Experimental: as §2

GABAA receptor 2 = experiment: Western blot of brain GABAA receptor 2 in caffeine-treated mice (Example 1); settings: FIG. 1A, male BALB/c mice brain, reduced from 100%, caffeine 7.5 mg/kg i.p., combos given together with caffeine, after two hours
Experimental: as §2

male mice = experiment: Serum melatonin by ELISA in male mice (Example 3); settings: FIG. 3, saline control about 33 pg/ml, caffeine 7.5 mg/kg, composition given with caffeine
Experimental: as §1

male BALB/c mice [1] = experiment: EEG amplitude and frequency in caffeine-treated mice (Example 1); settings: caffeine 7.5 mg/kg, compositions in combination with caffeine
Experimental: as §2, with “drill.” for “drill. Ag—AgCl ball electrodes were placed on the left somatomotor cortex (1 mm anterior/1.5 mm lateral from bregma; 3 mm posterior/1.5 mm lateral from bregma) and the reference electrode was attached to the left foot for an ECoG recording. Group 1 were treated with saline. To induce sleep disturbance, 7.5 mg/kg caffeine was injected intraperitoneally at minute 15 of recordings to groups 2-8.”
(§3) After the administration, the mice were placed in individual cages and subjected to measurements of sleep latency and duration. Brain electrical activity were monitored and recorded for a total of 2 hours. […]

male BALB/c mice [2] = experiment: Sleep duration and sleep latency in mice (Example 1); settings: pentobarbital 42 mg/kg, combos together with caffeine
Experimental: as §2, with “drill.” for “drill. Ag—AgCl ball electrodes were placed on the left somatomotor cortex (1 mm anterior/1.5 mm lateral from bregma; 3 mm posterior/1.5 mm lateral from bregma) and the reference electrode was attached to the left foot for an ECoG recording. Group 1 were treated with saline. To induce sleep disturbance, 7.5 mg/kg caffeine was injected intraperitoneally at minute 15 of recordings to groups 2-8.”
as §3

| Compound | melatonin level (OVX female mice) | percentage of 5-HT1A receptor (5-HT1A) | percentage of GABAB receptor 2 (GABAB receptor 2) | percentage of GluA1 receptor (GluA1) | percentage of GluN1 receptor (GluN1) | percentage of GluN2A receptor (GluN2A) | percentage of GABAB receptor 1 (GABAB receptor 1) | percentage of GABAA receptor 2 (GABAA receptor 2) | melatonin level (male mice) | EEG amplitude (male BALB/c mice [1]; FIG. 1H, from about 100 mV, within 75 minutes) | EEG frequency (male BALB/c mice [1]; FIG. 1I, from about 100 spikes, in 90 minutes) | sleep duration (male BALB/c mice [2]; FIG. 1J) | sleep latency (male BALB/c mice [2]; FIG. 1K) |
| --- | --- | --- | --- | --- | --- | --- | --- | --- | --- | --- | --- | --- | --- |
| Cn1c(=O)c2c(ncn2C)n(C)c1=O [caffeine] | about 8 pg/ml | about 20% | about 28% | about 26% | about 35% | about 20% | about 18% | about 25% | about 12 pg/ml | about 70 mV | about 200 spikes |  |  |
| CCCC(C)C1(CC)C(=O)NC(=O)NC1=O (stereo not shown) [pentobarbital] |  |  |  |  |  |  |  |  |  |  |  | about 50 minutes | about 2 minutes |

Reference: patent US12239623B2, “Sleep-improving compositions and methods of use” (priority 2023, dated 2025)
